Columns and labels:
Assay type in all cases: in vivo
Oryza sativa = assay: Paddy herbicidal activity test, phytotoxicity to transplanted rice; conditions: rice transplanted at 2.0 leaf stage, 30 days at 30° C.
Procedure: (§1) Rice paddy soil was filled into a 1/10000 are pot followed by the addition of suitable amounts of water and chemical fertilizer, kneading, seeding with Echinochloa crus-galli, Monochoria vaginalis and Scirpus juncoides and maintaining in an irrigated state at a water depth of 3 cm. Wettable powders of Target Compound (I) shown in Table 1 prepared in compliance with the preparation examples were diluted with a suitable amount of water, rice plants in the 2.0 leaf stage were transplanted during 3.5 leaf stage of Echinochloa crus-galli, and treated by dropping in chemical in the prescribed amount per 10 are using a pipette. After treating for 30 days in a glass greenhouse at an average atmospheric temperature of 30° C., the herbicidal efficacy thereof was investigated. Evaluation of herbicidal efficacy was carried out by comparing growth inhibition rate (%) with an untreated group, while evaluation of phytotoxicity was carried out by comparing growth inhibition rate (%) with the state of a complete eradication group, and were evaluated at 11 levels indicated below.

Chenopodium album [1] = assay: Farming soil treatment test; conditions: soil surface spray prior to weed growth, 30 days at 30° C.
Procedure: (§2) Field soil was filled into a 1/6000 are pot followed by seeding with Digitaria ciliaris, Chenopodium album and Amaranthus retroflexus and covering with soil. Wettable powders of compounds of formula (I) shown in Table 1 prepared in compliance with the preparation examples were diluted with water to the prescribed amount of chemical and uniformly sprayed onto each soil surface layer using 100 liters of sprayed water per 10 are prior to weed growth following seeding. After treating for 30 days in a glass greenhouse at an average atmospheric temperature of 30° C., the herbicidal efficacy thereof was investigated. Evaluation of herbicidal efficacy was carried out in the same manner as the above-mentioned Test Example 1.

Amaranthus retroflexus [2] = assay: Farming soil treatment test; conditions: soil surface spray prior to weed growth, 30 days at 30° C.
Procedure: as §2

Digitaria ciliaris [3] = assay: Farming soil treatment test; conditions: soil surface spray prior to weed growth, 30 days at 30° C.
Procedure: as §2

Chenopodium album [4] = assay: Weed foliar treatment test (Test 3, 1.0 to 2.0 leaf stage); conditions: foliar spray at 1.0 to 2.0 leaf stage of Digitaria ciliaris, 3 weeks at 25° C.
Procedure: (§3) Soil was filled into a 1/6000 are pot followed by seeding with Digitaria ciliaris, Chenopodium album and Amaranthus retroflexus, covering with soil, and cultivating in a glass greenhouse at an average atmospheric temperature of 25° C. Wettable powders of Target Compound (I) shown in Table 1 prepared in compliance with the preparation examples were diluted with water to the prescribed amount of chemical and uniformly sprayed onto the weeds using 150 liters of sprayed water per 10 are when Digitaria ciliaris had grown to the 1.0 to 2.0 leaf stage. After treating for 3 weeks in a glass greenhouse at an average atmospheric temperature of 25° C., the herbicidal efficacy thereof was investigated. Evaluation of herbicidal efficacy was carried out in the same manner as the above-mentioned Test Example 1.

Amaranthus retroflexus [5] = assay: as above; conditions: foliar spray at 1.0 to 2.0 leaf stage of Digitaria ciliaris, 3 weeks at 25° C.
Procedure: as §3

Digitaria ciliaris [6] = assay: as above; conditions: foliar spray at 1.0 to 2.0 leaf stage of Digitaria ciliaris, 3 weeks at 25° C.
Procedure: as §3

Monochoria vaginalis = assay: Paddy herbicidal activity test; conditions: irrigated pot, treated at 3.5 leaf stage of Echinochloa crus-galli, 30 days at 30° C.
Procedure: as §1

Echinochloa crus-galli = assay: Paddy herbicidal activity test; conditions: irrigated pot, treated at 3.5 leaf stage of Echinochloa crus-galli, 30 days at 30° C.
Procedure: as §1

Scirpus juncoides = assay: Paddy herbicidal activity test; conditions: irrigated pot, treated at 3.5 leaf stage of Echinochloa crus-galli, 30 days at 30° C.
Procedure: as §1

Galinsoga parviflora = assay: Weed foliar treatment test (Test 4, 4.0 to 5.0 leaf stage); conditions: 10 g a.i./10 a; foliar spray at 4.0 to 5.0 leaf stage of Digitaria ciliaris (plant height 10 cm to 15 cm); 20 days at 25° C.
Procedure: (§4) Field soil was filled into a 1/4500 are pot followed by seeding with Digitaria ciliaris and Galinsoga parviflora, covering with soil and cultivating in a glass greenhouse at an average atmospheric temperature of 25° C. Wettable powders of Target Compound (I) shown in Table 1 prepared in compliance with the preparation examples were diluted with water to the prescribed amount of chemical and uniformly sprayed onto the weeds using 100 liters of sprayed water per 10 are when Digitaria ciliaris had grown to the 4.0 to 5.0 leaf stage (plant height: 10 cm to 15 cm). After treating for 20 days in a glass greenhouse at an average atmospheric temperature of 25° C., the herbicidal efficacy thereof was investigated. Evaluation of herbicidal efficacy was carried out in the same manner as the above-mentioned Test Example 1.

Digitaria ciliaris [7] = assay: as above; conditions: 10 g a.i./10 a; foliar spray at 4.0 to 5.0 leaf stage of Digitaria ciliaris (plant height 10 cm to 15 cm); 20 days at 25° C.
Procedure: as §4

SMILES: Cc1ccccc1CC(=O)Nc1c(C#N)cnn1-c1nn2c(c1Cl)CCCC2 [Compound 6]
- phytotoxicity, Oryza sativa (Oryza sativa; 1 g a.i./10 a): 1 (1: 10% to less than 20%)
- phytotoxicity, Oryza sativa (Oryza sativa; 5 g a.i./10 a): 1 (1: 10% to less than 20%)
- herbicidal efficacy, Chenopodium album (Chenopodium album [1]; 5 g a.i./10 a): 9 (9: 90% to less than 100%)
- herbicidal efficacy, Chenopodium album (Chenopodium album [1]; 10 g a.i./10 a): 10 (10: 100%)
- herbicidal efficacy, Amaranthus retroflexus (Amaranthus retroflexus [2]; 5 g a.i./10 a): 9 (9: 90% to less than 100%)
- herbicidal efficacy, Amaranthus retroflexus (Amaranthus retroflexus [2]; 10 g a.i./10 a): 9 (9: 90% to less than 100%)
- herbicidal efficacy, Digitaria ciliaris (Digitaria ciliaris [3]; 5 g a.i./10 a): 9 (9: 90% to less than 100%)
- herbicidal efficacy, Digitaria ciliaris (Digitaria ciliaris [3]; 10 g a.i./10 a): 9 (9: 90% to less than 100%)
- herbicidal efficacy, Chenopodium album (Chenopodium album [4]; 5 g a.i./10 a): 10 (10: 100%)
- herbicidal efficacy, Chenopodium album (Chenopodium album [4]; 10 g a.i./10 a): 10 (10: 100%)
- herbicidal efficacy, Amaranthus retroflexus (Amaranthus retroflexus [5]; 5 g a.i./10 a): 10 (10: 100%)
- herbicidal efficacy, Amaranthus retroflexus (Amaranthus retroflexus [5]; 10 g a.i./10 a): 10 (10: 100%)
- herbicidal efficacy, Digitaria ciliaris (Digitaria ciliaris [6]; 5 g a.i./10 a): 10 (10: 100%)
- herbicidal efficacy, Digitaria ciliaris (Digitaria ciliaris [6]; 10 g a.i./10 a): 10 (10: 100%)
- herbicidal efficacy, Monochoria vaginalis (Monochoria vaginalis; 1 g a.i./10 a): 10 (10: 100%)
- herbicidal efficacy, Monochoria vaginalis (Monochoria vaginalis; 5 g a.i./10 a): 10 (10: 100%)
- herbicidal efficacy, Echinochloa crus-galli (Echinochloa crus-galli; 1 g a.i./10 a): 10 (10: 100%)
- herbicidal efficacy, Echinochloa crus-galli (Echinochloa crus-galli; 5 g a.i./10 a): 10 (10: 100%)
- herbicidal efficacy, Scirpus juncoides (Scirpus juncoides; 1 g a.i./10 a): 10 (10: 100%)
- herbicidal efficacy, Scirpus juncoides (Scirpus juncoides; 5 g a.i./10 a): 10 (10: 100%)
- herbicidal efficacy, Galinsoga parviflora (Galinsoga parviflora): 10 (10: 100%)
- herbicidal efficacy, Digitaria ciliaris (Digitaria ciliaris [7]): 10 (10: 100%)

SMILES: Cc1cccc(CC(=O)Nc2c(C#N)cnn2-c2nn3c(c2Cl)CCCC3)c1 [Compound 9]
- phytotoxicity, Oryza sativa (Oryza sativa; 1 g a.i./10 a): 0 (0 (exponent): 0% to less than 10% (growth inhibition rate))
- phytotoxicity, Oryza sativa (Oryza sativa; 5 g a.i./10 a): 0 (0 (exponent): 0% to less than 10% (growth inhibition rate))
- herbicidal efficacy, Chenopodium album (Chenopodium album [1]; 5 g a.i./10 a): 9 (9: 90% to less than 100%)
- herbicidal efficacy, Chenopodium album (Chenopodium album [1]; 10 g a.i./10 a): 10 (10: 100%)
- herbicidal efficacy, Amaranthus retroflexus (Amaranthus retroflexus [2]; 5 g a.i./10 a): 9 (9: 90% to less than 100%)
- herbicidal efficacy, Amaranthus retroflexus (Amaranthus retroflexus [2]; 10 g a.i./10 a): 10 (10: 100%)
- herbicidal efficacy, Digitaria ciliaris (Digitaria ciliaris [3]; 5 g a.i./10 a): 9 (9: 90% to less than 100%)
- herbicidal efficacy, Digitaria ciliaris (Digitaria ciliaris [3]; 10 g a.i./10 a): 9 (9: 90% to less than 100%)
- herbicidal efficacy, Chenopodium album (Chenopodium album [4]; 5 g a.i./10 a): 10 (10: 100%)
- herbicidal efficacy, Chenopodium album (Chenopodium album [4]; 10 g a.i./10 a): 10 (10: 100%)
- herbicidal efficacy, Amaranthus retroflexus (Amaranthus retroflexus [5]; 5 g a.i./10 a): 10 (10: 100%)
- herbicidal efficacy, Amaranthus retroflexus (Amaranthus retroflexus [5]; 10 g a.i./10 a): 10 (10: 100%)
- herbicidal efficacy, Digitaria ciliaris (Digitaria ciliaris [6]; 5 g a.i./10 a): 10 (10: 100%)
- herbicidal efficacy, Digitaria ciliaris (Digitaria ciliaris [6]; 10 g a.i./10 a): 10 (10: 100%)
- herbicidal efficacy, Monochoria vaginalis (Monochoria vaginalis; 1 g a.i./10 a): 9 (9: 90% to less than 100%)
- herbicidal efficacy, Monochoria vaginalis (Monochoria vaginalis; 5 g a.i./10 a): 10 (10: 100%)
- herbicidal efficacy, Echinochloa crus-galli (Echinochloa crus-galli; 1 g a.i./10 a): 9 (9: 90% to less than 100%)
- herbicidal efficacy, Echinochloa crus-galli (Echinochloa crus-galli; 5 g a.i./10 a): 9 (9: 90% to less than 100%)
- herbicidal efficacy, Scirpus juncoides (Scirpus juncoides; 1 g a.i./10 a): 9 (9: 90% to less than 100%)
- herbicidal efficacy, Scirpus juncoides (Scirpus juncoides; 5 g a.i./10 a): 9 (9: 90% to less than 100%)
- herbicidal efficacy, Galinsoga parviflora (Galinsoga parviflora): 10 (10: 100%)
- herbicidal efficacy, Digitaria ciliaris (Digitaria ciliaris [7]): 10 (10: 100%)

SMILES: N#Cc1cnn(-c2nn3c(c2Cl)CCCC3)c1NC(=O)Cc1cccc(F)c1 [Compound 11]
- phytotoxicity, Oryza sativa (Oryza sativa; 1 g a.i./10 a): 0 (0 (exponent): 0% to less than 10% (growth inhibition rate))
- phytotoxicity, Oryza sativa (Oryza sativa; 5 g a.i./10 a): 1 (1: 10% to less than 20%)
- herbicidal efficacy, Chenopodium album (Chenopodium album [1]; 5 g a.i./10 a): 10 (10: 100%)
- herbicidal efficacy, Chenopodium album (Chenopodium album [1]; 10 g a.i./10 a): 10 (10: 100%)
- herbicidal efficacy, Amaranthus retroflexus (Amaranthus retroflexus [2]; 5 g a.i./10 a): 9 (9: 90% to less than 100%)
- herbicidal efficacy, Amaranthus retroflexus (Amaranthus retroflexus [2]; 10 g a.i./10 a): 9 (9: 90% to less than 100%)
- herbicidal efficacy, Digitaria ciliaris (Digitaria ciliaris [3]; 5 g a.i./10 a): 9 (9: 90% to less than 100%)
- herbicidal efficacy, Digitaria ciliaris (Digitaria ciliaris [3]; 10 g a.i./10 a): 10 (10: 100%)
- herbicidal efficacy, Chenopodium album (Chenopodium album [4]; 5 g a.i./10 a): 10 (10: 100%)
- herbicidal efficacy, Chenopodium album (Chenopodium album [4]; 10 g a.i./10 a): 10 (10: 100%)
- herbicidal efficacy, Amaranthus retroflexus (Amaranthus retroflexus [5]; 5 g a.i./10 a): 10 (10: 100%)
- herbicidal efficacy, Amaranthus retroflexus (Amaranthus retroflexus [5]; 10 g a.i./10 a): 10 (10: 100%)
- herbicidal efficacy, Digitaria ciliaris (Digitaria ciliaris [6]; 5 g a.i./10 a): 10 (10: 100%)
- herbicidal efficacy, Digitaria ciliaris (Digitaria ciliaris [6]; 10 g a.i./10 a): 10 (10: 100%)
- herbicidal efficacy, Monochoria vaginalis (Monochoria vaginalis; 1 g a.i./10 a): 9 (9: 90% to less than 100%)
- herbicidal efficacy, Monochoria vaginalis (Monochoria vaginalis; 5 g a.i./10 a): 9 (9: 90% to less than 100%)
- herbicidal efficacy, Echinochloa crus-galli (Echinochloa crus-galli; 1 g a.i./10 a): 9 (9: 90% to less than 100%)
- herbicidal efficacy, Echinochloa crus-galli (Echinochloa crus-galli; 5 g a.i./10 a): 10 (10: 100%)
- herbicidal efficacy, Scirpus juncoides (Scirpus juncoides; 1 g a.i./10 a): 9 (9: 90% to less than 100%)
- herbicidal efficacy, Scirpus juncoides (Scirpus juncoides; 5 g a.i./10 a): 10 (10: 100%)
- herbicidal efficacy, Galinsoga parviflora (Galinsoga parviflora): 10 (10: 100%)
- herbicidal efficacy, Digitaria ciliaris (Digitaria ciliaris [7]): 10 (10: 100%)

— patent publication US10165776B2, “Substituted pyrazolylpyrazole derivative and use of same as herbicide” (KYOYU AGRI CO., LTD., priority 2015, dated 2019)
